Results taken from patent US20260008746A1, “CATIONIC LIPID COMPOUND WITH HIGH EFFICIENCY, LOW TOXICITY AND STABLE EXPRESSION, AND COMPOSITION COMPRISNG SAME” (HANGZHOU TIANLONG PHARMACEUTICAL CO., LTD, priority 2023, published 2026).

What was measured:
293T cells [1] = assay: Fluorescent detection of Fluc-mRNA (cell transfection efficiency of LNP formulations); type: cell-based; settings: for Relative light unit (RLU): LNP formulation containing 0.3 μg Fluc-mRNA, 96-well plate, 24 hours; for Multiples (YK-101): RLU of YK-101 / RLU of named substance; for Multiples (YK-108): RLU of YK-108 / RLU of named substance; for Ratio relative to SM-102: RLU of named substance / RLU of SM-102; for Multiples (YK-107): RLU of YK-107 / RLU of named substance; for fluorescence absorption value, times that of HHMA: RLU of named substance / RLU of HHMA; for fluorescence absorption value, times that of Lipofectamine 3000: RLU of named substance / RLU of Lipofectamine 3000; for Fluc-mRNA expression signal intensity, times that of compound 21: RLU of named substance / RLU of compound 21; for fluorescence absorption value, times that of compound 23: RLU of named substance / RLU of compound 23
Procedure: (§1) Cell recovery and passage: 293T cells were recovered, cultured in a culture dish, and passaged to the required number of cells.
(§2) Seeding plate: The cells in the culture dish were digested and counted. Cells were spread in a 96-well plate at 10,000 cells per well and in a 12-well plate at 150,000 cells per well. Cells were cultured overnight until the cells adhered to the wall.
Cell recovery and passage: the method was the same as in Example 3.
Seeding plate: the method was the same as in Example 3.
An LNP formulation containing 0.3 μg of Fluc-mRNA (the carrier components of the LNP formulation were cationic lipid, neutral lipid, structured lipid and polymer-conjugated lipid with a molar ratio of 49:10:39.5:1.5, wherein the cationic lipid was listed in Table 1) was added to the cell culture medium of a 96-well plate, and further incubated for 24 hours. The corresponding reagent was added according to the instructions of the Gaussia Luciferase Assay Kit, and the fluorescence expression intensity of each well was detected by an IVIS fluorescence detection system. This test verified the transfection efficiencies of LNP formulations in cells, see Tables 3-6 for specific test results.

BALB/C mice = assay: In vivo imaging of Fluc-mRNA expression in mice delivered by LNP formulations; settings: for average radiation intensity, 6 h / average radiation intensity, 24 h / average radiation intensity, 48 h / average radiation intensity, 7 d: LNP containing 10 pg Fluc-mRNA, intramuscular, female BALB/C mice
Procedure: The LNP formulation containing […] Fluc-mRNA was injected intramuscularly into female BALB/C mice aged 4-6 weeks old and weighed 17-19 g, and the mice were intraperitoneally injected with fluorescent imaging substrate at specific time points after administration (6h, 24 h, 48h and 7d), where the mice were allowed to move freely for 5 minutes, and then the average radiation intensity (corresponding to fluorescence expression intensity) of the protein expression of the mRNA carried by the LNP in the mice was detected by the IVIS Spectrum small animal in vivo imaging device. The test results are shown in Tables 11 to 14 and FIGS. 12 to 14.

293T cells [2] = assay: Cell survival rate determination (CCK-8); type: cell-based; settings: for Cell survival rate (%): LNP formulation containing 1.5 μg Fluc-mRNA, 24 hours, CCK-8, absorbance at 450 nm; for cell survival rate lower than that of YK-101: cell survival rate of YK-101 minus that of named substance; for cell survival rate lower than that of YK-107: cell survival rate of YK-107 minus that of named substance; for cell survival rate lower than that of YK-108: cell survival rate of YK-108 minus that of named substance
Procedure: as §1, §2
An LNP formulation containing 1.5 μg of Fluc-mRNA (the cater component of the LNP formulation were cationic lipid, neutral lipid, structured lipid and polymer-conjugated lipid with a molar ratio of 49: 10: 39.5: 1.5, wherein the cationic lipid was listed in Table 1) and the formulation of Lipofectamine 3000 were added to the cell culture medium of a 96-well plate, and further cultivated for 24 hours. 10 μL of CCK-8 solution was then added to each well, and the culture plate was incubated in an incubator for 1 hour. The absorbance at 450 nm was measured by a microplate reader.

[3] = highest multiple, time point not stated

SMILES | Relative light unit (RLU) (293T cells [1]) | Multiples (YK-101) (293T cells [1]) | Multiples (YK-108) (293T cells [1]) | Ratio relative to SM-102 (293T cells [1]) | average radiation intensity of YK-101, times that of named substance (BALB/C mice; 6 h) [times] | average radiation intensity of YK-107, times that of named substance (BALB/C mice; 6 h) [times] | average radiation intensity of YK-108, times that of named substance (BALB/C mice; 6 h) [times] | average radiation intensity of YK-101, times that of named substance (BALB/C mice; 24 h) [times] | average radiation intensity of YK-107, times that of named substance (BALB/C mice; 24 h) [times] | average radiation intensity of YK-108, times that of named substance (BALB/C mice; 24 h) [times] | average radiation intensity of YK-101, times that of named substance (BALB/C mice; 48 h) [times] | average radiation intensity of YK-107, times that of named substance (BALB/C mice; 48 h) [times] | average radiation intensity of YK-108, times that of named substance (BALB/C mice; 48 h) [times] | average radiation intensity of YK-101, times that of named substance (BALB/C mice; 7 d) [times] | average radiation intensity, 6 h (BALB/C mice; 6 h) | average radiation intensity, 24 h (BALB/C mice; 24 h) | average radiation intensity, 48 h (BALB/C mice; 48 h) | average radiation intensity, 7 d (BALB/C mice; 7 d) | Cell survival rate (%) (293T cells [2]) | Multiples (YK-107) (293T cells [1]) | also measured
CCCCCCCCCCOC(=O)CCCN(CCCO)CCCCCC(=O)OCCC(CCCCCC)CCCCCC [YK-102, 3-hexylnonyl-6-(4-(decyloxy)-4-oxobutyl)((3-hydroxypropyl)amino)hexanoate] | 1464032 | 13.89 | 16.84 | 0.95 | 2.3 | 2.5 | 3.1 | 10.5 | 13.0 | 14.0 | 6.1 | 7.4 | 7.6 | 1.9 | 652680 | 100422 | 30507 | 6477 | 51.82 |  | average radiation intensity of YK-107, times that of named substance (BALB/C mice; 7 d): 2.1 times; average radiation intensity of YK-108, times that of named substance (BALB/C mice; 7 d): 2.2 times; cell survival rate lower than that of YK-101 (293T cells [2]): 38.30%; cell survival rate lower than that of YK-107 (293T cells [2]): 38.63%; cell survival rate lower than that of YK-108 (293T cells [2]): 38.04%
CCCCCCCCCCOC(=O)CCCN(CCCO)CCCCCC(=O)OCC(CCCCCCCC)CCCCCCCC [YK-107, 2-octyldecyl 6-(4-(decyloxy)-4-oxobutyl)((3-hydroxypropyl)amino)hexanoate] | 22361210 | 0.91 | 1.10 | 14.58 |  |  |  |  |  |  |  |  |  |  | 1601250 | 1302640 | 226170 | 13288 | 90.45 | 1.00 | 
CCCCCCCCCCCOC(=O)CCCN(CCO)CCCCCCC(=O)OCCC(CCCCCC)CCCCCC [YK-108, 3-hexylnonyl 7-(4-(undecyloxy)-4-oxobutyl)((2-hydroxyethyl)amino)heptanoate] | 24660507 | 0.82 | 1.00 | 16.07 |  |  |  |  |  |  |  |  |  |  | 2017280 | 1406010 | 230360 | 14194 | 89.86 | 0.91 | 
CCCCCCCCC(CCCCCCCC)COC(=O)CCCCCN(CCO)CCCCCC(=O)OCCCSSCCCCC [YK-111] | 1328301 | 15.31 | 18.57 | 0.87 | 2.3 | 2.4 | 3.0 | 10.6 | 13.1 | 14.1 | 9.2 | 11.1 | 11.3 | 2.4 | 661800 | 99777 | 20312 | 5050 | 75.76 | 16.83 | cell transfection efficiency, times that of YK-110 (293T cells [1]): 5 times; fluorescence absorption value, times that of HHMA (293T cells [1]): 0.65 times; fluorescence absorption value, times that of Lipofectamine 3000 (293T cells [1]): 1.24 times; Fluc-mRNA expression signal intensity, times that of compound 21 (293T cells [1]): 0.96 times; fluorescence absorption value, times that of compound 23 (293T cells [1]): 1.03 times; average radiation intensity of YK-107, times that of named substance (BALB/C mice; 7 d): 2.6 times; average radiation intensity of YK-108, times that of named substance (BALB/C mice; 7 d): 2.8 times; cell survival rate lower than that of YK-101 (293T cells [2]): 14.36%; cell survival rate lower than that of YK-107 (293T cells [2]): 14.69%; cell survival rate lower than that of YK-108 (293T cells [2]): 14.10%
CCCCCCCCCCOC(=O)CCCN(CCCCCC(=O)OCCC(CCCCCC)CCCCCC)CC(O)CO (stereo not drawn) [YK-114, 3-hexylnonyl 6-(4-(decyloxy)-4-oxobutyl)((2,3-dihydroxypropyl)amino)hexanoate] | 1418926 | 14.33 | 17.38 | 0.92 | 2.8 | 3.0 | 3.8 | 11.3 | 13.9 | 15.0 | 9.8 | 11.9 | 12.1 | 2.2 | 535760 | 93565 | 19004 | 5457 | 68.33 | 15.76 | fluorescence absorption value, times that of HHMA (293T cells [1]): 0.69 times; fluorescence absorption value, times that of Lipofectamine 3000 (293T cells [1]): 1.32 times; Fluc-mRNA expression signal intensity, times that of compound 21 (293T cells [1]): 1.02 times; fluorescence absorption value, times that of compound 23 (293T cells [1]): 1.10 times; average radiation intensity of YK-107, times that of named substance (BALB/C mice; 7 d): 2.4 times; average radiation intensity of YK-108, times that of named substance (BALB/C mice; 7 d): 2.6 times; expression amount of mRNA in mice of YK-101, times that of named substance (BALB/C mice; [3]): up to 11 times; expression amount of mRNA in mice of YK-107, times that of named substance (BALB/C mice; [3]): ≤ 13 times; cell survival rate lower than that of YK-101 (293T cells [2]): 21.79%; cell survival rate lower than that of YK-107 (293T cells [2]): 22.12%; cell survival rate lower than that of YK-108 (293T cells [2]): 21.53%
